Measurements: patent US11926628B2 (Gilead Sciences, Inc., priority 2021, dated 2024)

How the values were obtained:
human DGKα = human DGKα (Homo sapiens (Human), UniProt P23743); test: DGKα Biochemical Activity Assay (ADP-Glo); settings: recombinant DGKα 1 nM, 100 μM ATP, 18:1 DAG/POPS/octylglucoside micelles, 1 hour at 25° C.; geometric mean; read-out: HTBS DGKa 1X ATP KM IC50
Source text: Alternatively, the enzymatic activity of human DGKα was monitored in a biochemical assay in the presence or absence of compounds and using micelles containing 18:1 Diacylglycerol (DAG), 16:0-18:1 PS (POPS) and Octylglucoside as substrate. DGKα activity led to conversion of DAG and ATP to Phosphatidic Acid (PA) and ADP. Levels of ADP were monitored by bioluminescence using the ADP-Glo Kinase Assay (Promega) and were indicative of DGKα activity.
Ten nanoliters of test compound dissolved in DMSO at various concentrations were dispensed into a 384-well low volume nonbinding service white plates (Corning #3824) using a Labcyte Echo instrument. Recombinant DGKα (Carna Biosciences) in assay buffer (5 μL in 50 mM MOPS [3-(N-morpholino) propanesulfonic acid], pH 7.2; 0.0025% Triton X-100; 1 mM dithiothreitol; 5 mM MgCl2, 200 μM ATP) was added to the compound-containing plate and was incubated for 15 minutes at 25° C. A substrate solution (5 μL in 1.7 mM 1,2-dioleoyl-sn-glycerol [18:1 DAG], 13.5 mM 1-palmitoyl-2-oleoyl-sn-glycero-3-phospho-L-serine [16:0-18:1 PS](POPS), 2 μM CaCl2, 100 mM Octylglucoside (OG), 1 mM DTT) (obtained from Carna Biosciences) diluted in DGK ALPHA assay buffer was then added to start the reaction. Final concentrations were 1 nM DGKα, 100 μM ATP, 1 μM calcium chloride, 0.85 mM 1,2-dioleoyl-sn-glycerol (18:1 DAG), 6.75 mM 1-palmitoyl-2-oleoyl-sn-glycero-3-phospho-L-serine (16:0-18:1 PS) (POPS), 1 μM CaCl2), 50 mM Octylglucoside (OG) and 5 mM MgCl2. The reaction mixture was incubated at 25° C. for 1 hour. ADP-Glo Reagent (10 μL, 10 mM Mg added) provided by the kit was added to each well and incubated at 25° C. for 40 minutes. Then, 20 μL of Kinase Detection Reagent was added and incubated at 25° C. for 40 minutes. Luciferase activity of each well was measured via luminescence on an Envision plate reader (PerkinElmer).
Data were normalized based on maximum inhibition (50 μM of kinase inhibitor CU3) and no inhibition (DMSO) controls. Least squares curve fittings were performed using a four-parameter variable slope nonlinear regression model. IC50 was defined as the concentration of compound required to inhibit 50% of maximum activity. IC50 values from multiple experiments were averaged by geometric mean and the standard deviation was calculated.

[1] = tested on: Jurkat NFκB-luciferase cells; test: Jurkat NFκB-Luciferase Assay; assay type: cell-based; settings: Homo sapiens; Jurkat NFκB-luciferase cells activated with anti-CD3 antibody (OKT3), 2.5 hrs at 37° C.; geometric mean; read-out: DGK NFKb Luciferase EC50
Protocol: The activity of compounds was tested in a cell based NFκB reporter assay. Jurkat cells that are stably expressing a luciferase reporter construct under the transcriptional control of a NFκB reporter element were activated with an anti-CD3 antibody and luciferase levels were measured with a bioluminescence readout. An increase in the levels of bioluminescence was indicative of enhanced T-cell activation following DGKα inhibition by the compound.
Flat-bottom polystyrene plates (384-well, tissue culture treated) were coated overnight at 4° C. with 20 ul/well of a solution of phosphate-buffered saline supplemented with 5 ug/ml anti-CD3 antibody (clone OKT3, Biolegend). The day after, the excess antibody was washed out five times with 100 ul/well of assay medium (RPMI supplemented with 10% fetal bovine serum) using a Biotek EL406 instrument and leaving 20 ul of residual volume in each well. Jurkat NFκB-luciferase cells (Promega #) were harvested and diluted to 1 million cells/ml in assay medium. Sixty nanoliters of test compound dissolved in DMSO at various concentrations were dispensed into 384-well v-bottom polypropylene plates (Greiner) using a Labcyte Echo instrument. Thirty microliters of medium containing the Jurkat NFκB-luciferase cells were then dispensed using a Biotek MicroFlo instrument in each well of the compound-containing plate. The medium/cell/compound mixture was mixed with a Bravo instrument and 20 ul/well of the mixture was transferred to the anti-CD3-coated plate. The assay mixture was then incubated for 2.5 hrs at 37° C. followed by equilibration at 25° C. for 30 min. Forty microliters of One-Glo Ex (Promega) was then added to the assay mixture and luciferase activity was read on a Envision plate reader 7 minutes later.
Bioluminescence data were normalized based on maximum enhancement (1 micromolar of compound) and on basal activation (DMSO) controls. Least squares curve fittings were performed using a four-parameter variable slope nonlinear regression model. EC50 is defined as the concentration of compound required to produce 50% of maximum NFκB luciferase signal. EC50 values from multiple experiments were averaged by geometric mean and the standard deviation was calculated.

Sequence of human DGKα (P23743 whole entry): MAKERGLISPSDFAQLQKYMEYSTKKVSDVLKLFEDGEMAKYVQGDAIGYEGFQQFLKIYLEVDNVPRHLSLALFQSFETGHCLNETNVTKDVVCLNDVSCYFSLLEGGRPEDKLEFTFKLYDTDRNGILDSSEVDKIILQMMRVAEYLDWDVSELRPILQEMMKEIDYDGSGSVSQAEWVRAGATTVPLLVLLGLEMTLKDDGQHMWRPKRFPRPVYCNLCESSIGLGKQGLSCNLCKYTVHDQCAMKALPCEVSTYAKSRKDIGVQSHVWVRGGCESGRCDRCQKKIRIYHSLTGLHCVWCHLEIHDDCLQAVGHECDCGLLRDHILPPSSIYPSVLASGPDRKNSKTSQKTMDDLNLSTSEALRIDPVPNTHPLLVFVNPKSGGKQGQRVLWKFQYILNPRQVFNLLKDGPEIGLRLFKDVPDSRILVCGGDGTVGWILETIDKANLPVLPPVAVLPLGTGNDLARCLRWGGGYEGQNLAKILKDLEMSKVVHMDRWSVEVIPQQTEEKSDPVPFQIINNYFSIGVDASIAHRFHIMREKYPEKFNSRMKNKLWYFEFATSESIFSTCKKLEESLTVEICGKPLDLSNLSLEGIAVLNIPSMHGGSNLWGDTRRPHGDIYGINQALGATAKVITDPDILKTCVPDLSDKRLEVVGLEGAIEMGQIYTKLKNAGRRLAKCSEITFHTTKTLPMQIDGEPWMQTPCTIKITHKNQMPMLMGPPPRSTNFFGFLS

Row | SMILES | IC50 (human DGKα) [nM] | EC50 [1] [nM]
1 | CN(c1cccc(-c2ccc(N3CCCS3(=O)=O)cc2)c1)c1nc2nncn2c2cnccc12 [Example 59, N-[3-[4-(1,1-dioxo-1,2-thiazolidin-2-yl)phenyl]phenyl]-N-methyl-2,4,5,7,12-pentazatricyclo[7.4.0.02,6]trideca-1(13),3,5,7,9,11-hexaen-8-amine] | 45.2 | 121
2 | Cc1nnc2nc(N(CC(F)F)c3cc(F)cc(C#CC4(C(F)F)CC4)c3)c3cc(F)cnc3n12 [Example 105, N-(2,2-difluoroethyl)-N-(3-((1-(difluoromethyl)cyclopropyl)ethynyl)-5-fluorophenyl)-3-fluoro-9-methylpyrido[3,2-e][1,2,4]triazolo[4,3-a]pyrimidin-5-amine] | 13.3 | 5.57
3 | CC(C)(O)C#Cc1cccc2c1CCCN2c1nc2nncn2c2cncc(F)c12 [Example 85, 4-[1-(10-fluoro-2,4,5,7,12-pentazatricyclo[7.4.0.02,6]trideca-1(13),3,5,7,9,11-hexaen-8-yl)-3,4-dihydro-2H-quinolin-5-yl]-2-methyl-but-3-yn-2-ol] | 13.4 | 12.7
4 | Cc1nnc2nc(N3CCOCc4c(Br)cccc43)c3c(F)cncc3n12 [Example 81, 6-bromo-1-(6-fluoro-1-methylpyrido[4,3-e][1,2,4]triazolo[4,3-a]pyrimidin-5-yl)-1,2,3,5-tetrahydrobenzo[e][1,4]oxazepine] | 151 | 46.7
5 | Cc1nnc2nc(N3CCCc4c(C#CC(C)(C)O)cccc43)c3ccc(C(F)(F)F)nc3n12 [Example 145, 2-methyl-4-(1-(9-methyl-2-(trifluoromethyl)pyrido[3,2-e][1,2,4]triazolo[4,3-a]pyrimidin-5-yl)-1,2,3,4-tetrahydroquinolin-5-yl)but-3-yn-2-ol] | 59.6 | 8.73
6 | CNc1ccc2c(N(C)c3cccc(-c4ccc(OC)nc4)c3)nc3nncn3c2n1 [Example 119, N5-(3-(6-methoxypyridin-3-yl)phenyl)-N2,N5-dimethylpyrido[3,2-e][1,2,4]triazolo[4,3-a]pyrimidine-2,5-diamine] | 392 | 52.2
7 | Cc1nnc2nc(N3CCOCc4c(C#CC(C)(C)O)cccc43)c3c(F)cncc3n12 [Example 77, 4-(1-(6-fluoro-1-methylpyrido[4,3-e][1,2,4]triazolo[4,3-a]pyrimidin-5-yl)-1,2,3,5-tetrahydrobenzo[e][1,4]oxazepin-6-yl)-2-methylbut-3-yn-2-ol] | 12.6 | 130
8 | CN(c1cccc(C#CC(C)(C)C)c1)c1nc2nncn2c2cnccc12 [Example 60] | – | 6.75
9 | Cc1nnc2nc(N3CCCCc4c(C#CC(C)(C)C#N)cccc43)c3c(F)cncc3n12 [Example 64, 4-(1-(6-fluoro-1-methylpyrido[4,3-e][1,2,4]triazolo[4,3-a]pyrimidin-5-yl)-2,3,4,5-tetrahydro-1H-benzo[b]azepin-6-yl)-2,2-dimethylbut-3-ynenitrile] | – | 5.98
10 | COc1ccc(-c2cccc(N(C)c3nc4nncn4c4nc(N(C)C)ccc34)c2)cn1 [Example 111, N^5-(3-(6-methoxypyridin-3-yl)phenyl)-N^2,N^2,N^5-trimethylpyrido[3,2-e][1,2,4]triazolo[4,3-a]pyrimidine-2,5-diamine] | – | 20.1
11 | CCOc1ccc2c(N(C)c3cccc(-c4ccc(C5CC5)cc4)c3)nc3nncn3c2n1 [Example 113, N-(4′-cyclopropyl-[1,1′-biphenyl]-3-yl)-2-ethoxy-N-methylpyrido[3,2-e][1,2,4]triazolo[4,3-a]pyrimidin-5-amine] | – | 67.2
12 | CN(C)c1ccc2c(N(C)c3cccc(C#CC(C)(C)C)c3)nc3nncn3c2n1 [Example 110, N^5-(3-(3,3-dimethylbut-1-yn-1-yl)phenyl)-N^2,N^2,N^5-trimethylpyrido[3,2-e][1,2,4]triazolo[4,3-a]pyrimidine-2,5-diamine] | – | 9.9

Now those with a lower EC50 [1], led by results:

Row | IC50 (human DGKα) [nM] | EC50 [1] [nM] | SMILES
13 | 6.18 | 0.655 | CCN(c1cc(F)cc(C#CC2(C)CC2)c1)c1nc2nncn2c2cncc(F)c12 [Example 89, N-ethyl-10-fluoro-N-[3-fluoro-5-[2-(1-methylcyclopropyl)ethynyl]phenyl]-2,4,5,7,12-pentazatricyclo[7.4.0.02,6]trideca-1(13),3,5,7,9,11-hexaen-8-amine]
14 | 3.43 | 3.08 | Fc1cnc2c(c1)c(N1CCCc3c(C#CC4(C(F)F)CC4)cccc31)nc1nncn12 [Example 108, 5-(5-((1-(difluoromethyl)cyclopropyl)ethynyl)-3,4-dihydroquinolin-1(2H)-yl)-3-fluoropyrido[3,2-e][1,2,4]triazolo[4,3-a]pyrimidine]
15 | 102 | 3.46 | COc1ccc2c(N(C)c3cccc(C#CC(C)(C)C)c3)nc3nncn3c2n1 [Example 128, N-(3-(3,3-dimethylbut-1-yn-1-yl)phenyl)-2-methoxy-N-methylpyrido[3,2-e][1,2,4]triazolo[4,3-a]pyrimidin-5-amine]
16 | 2.29 | 3.27 | Cc1nnc2nc(N3CCCOc4c(C#CC5CC5)cccc43)c3c(F)cncc3n12 [Example 74, 9-(cyclopropylethynyl)-5-(6-fluoro-1-methylpyrido[4,3-e][1,2,4]triazolo[4,3-a]pyrimidin-5-yl)-2,3,4,5-tetrahydrobenzo[b][1,4]oxazepine]
17 | 28.4 | 4.2 | CN(c1cccc(-c2ccc(N3CCCS3(=O)=O)cc2)c1)c1nc2nnnn2c2cc(Cl)ccc12 [Example 5, 2-(3′-((8-chlorotetrazolo[1,5-a]quinazolin-5-yl)(methyl)amino)-[1,1′-biphenyl]-4-yl)isothiazolidine 1,1-dioxide]
18 | 42.9 | 1.79 | CN(c1cc(F)cc(C#CC(C)(C)C)c1)c1nc2nnnn2c2ccc(F)cc12 [Example 15]
19 | 7.25 | 1.43 | CN(c1cccc(-c2ccc(C3CC3)cc2)c1)c1nc2nncn2c2nc(N)ccc12 [Example 127, N5-(4′-cyclopropyl-[1,1′-biphenyl]-3-yl)-N5-methylpyrido[3,2-e][1,2,4]triazolo[4,3-a]pyrimidine-2,5-diamine]
20 | – | 2.4 | Cc1nnc2nc(N3CCCc4c(C#CC5(C(F)(F)F)CC5)cccc43)c3c(F)cncc3n12 [Example 41, 6-fluoro-1-methyl-5-(5-((1-(trifluoromethyl)cyclopropyl)ethynyl)-3,4-dihydroquinolin-1(2H)-yl)pyrido[4,3-e][1,2,4]triazolo[4,3-a]pyrimidine]
21 | – | 0.982 | CN(C)c1ccc2c(N(C)c3cccc(-c4ccc(C5CC5)cc4)c3)nc3nncn3c2n1 [Example 112, N^5-(4′-cyclopropyl-[1,1′-biphenyl]-3-yl)-N^2,N^2,N^5-trimethylpyrido[3,2-e][1,2,4]triazolo[4,3-a]pyrimidine-2,5-diamine]
